Results as given in paper PMC9268243, “Metabolic Behaviors of Aconitum Alkaloids in Different Concentrations of Aconiti Lateralis Radix Praeparata and Effects of Aconitine in Healthy Human and Long QT Syndrome Cardiomyocytes” (Molecules, 2022).
Where two headings read alike, the source gives them in different places.

Experiments:
normal hiPSC-CMs [1] = assay: Impedance beating recordings (cell index, beat rate, amplitude), normal hiPSC-CMs; format: cell-based, human
Description: (§1) HiPSCs derived from healthy controls (Cat: NC20010002; Lot.HJ210577NC22), or patients (Cat. NC20300002; Lot. CP210578NC04) diagnosed with LQT syndrome was maintained in HELP4004 (HELP, Nanjing, China) medium on Matrigel-coated (BD Bio science, San Jose, CA, USA) plates at 37 °C; with 5% CO2 (v/v).
(§2) The cardiomyocytes were seeded on Nanion CardioExcyte 96 Sensor Plates (NSP-96, Nanion Technologies, Munich, Germany) after 0.1% gelatin coating for 1 h. The initial volume was 200 μL per well and contained approximately […]. After seeding, the NSP-96 and CardioExcyte 96 were returned to the incubator. All cells were replaced with fresh medium 200 μL per well every 48 h and tested after 168 h. Cellular index, beat rate, base impedance and beat amplitude were monitored in this experiment.
(§3) Isoproterenol, nifedipine, and AC were purchased from Sigma-Aldrich, which were resolved in DMSO (Sigma-Aldrich, D2650). Drug compounds final concentration were AC (0.05, 0.5,5 μM), nifedipine (1 μM), isoproterenol (3 μM), respectively. Dilutions were prepared within 60 min of treatment. All the compound solutions were subjected to regular 10 min ultrasound and oscillations to ensure that compounds were completely dissolved. Equal amounts of DMSO (0.1%) were used as the vehicle controls.

LQT syndrome hiPSC-CMs [2] = assay: Impedance beating recordings (cell index, beat rate, amplitude), LQT syndrome hiPSC-CMs; format: cell-based, human
Description: as §1, §2, §3

normal hiPSC-CMs [3] = assay: Whole-cell current-clamp action potential recording, normal hiPSC-CMs; format: cell-based, human; conditions: normal hiPSC-CMs, 0.05, 0.5 and 5 μM, 1 Hz stimulation
Text: (§4) Standard patch-clamp techniques were used to record action potentials, and L-type calcium currents. Composition of intracellular fluid and extracellular fluid were shown in Table 7 and Table 8, respectively. The signal was amplified using an HEKA EPC-10 patch-clamp amplifier (HEKA, Electronics, Ludwigshafen, Germany) and low-pass filtered at 5 kHz. Patch pipettes were fabricated from glass capillaries using a Sutter P-97 microelectrode puller (Novato, CA, USA) and the tips were heat polished with a microforge (NARISHIGE MF-900) to gain a resistance of 2–5 MΩ. Data acquisition was achieved using HEKA Patchmaster (V2x73.2). Data analysis and fit were performed using Clamfit and Graphpad Prism 6.0. The experiment was conducted at 37 °C. One cell can test one or more drugs, or multiple concentrations of the same drug but needs to be rinsed with extracellular fluid between each test. Nifedipine (Sigma) was used as a positive control to ensure cell quality. External solution containing 0.1% DMSO was applied as vehicle to establish the baseline. Recording was done at a temperature-controlled room of 35–37 degrees Celsius.
Isoproterenol, nifedipine, and AC were purchased from Sigma-Aldrich, which were resolved in DMSO (Sigma-Aldrich, D2650). Drug compounds final concentration were AC (0.05, 0.5,5 μM), nifedipine (1 μM), isoproterenol (3 μM), respectively. […]

LQT syndrome hiPSC-CMs [4] = assay: Ca2+ imaging of calcium transients, LQT syndrome hiPSC-CMs; format: cell-based, human; conditions: cardiomyocytes of LQTS, 5 μM
Description: Dissociated day 30–33 post-differentiation hiPSC-CMs (healthy and LQT specific patient) were reseeded Matrigel-coated plate in HELP4004 (HELP) and were treated with 5 μM Fluo-3 AM and 0.02% Pluronic (Life Technologies) in DMEM/F12 (Gibco) for 60 min at 37 °C. Cells were washed with DMEM/F12 without fluorochrome solution afterwards for 30 min, replaced the solution with Tyrode’s solution. Ca^2+ imaging was conducted using Olympus IX71 confocal microscope (Olympus IX71, Tokyo, Japan) and analyzed using Olympus imaging software. Ca^2+ spontaneous transients were obtained using a single cell line scan mode at 37 °C.
as §3

[5] = molecular target: T1, L-type calcium current (ICa,L) in normal hiPSC-CMs (Homo sapiens, UniProt Q13936); assay: Patch-clamp L-type calcium current, normal hiPSC-CMs; format: cell-based
T1 construct: endogenous in cells; host or cells: normal hiPSC-derived cardiomyocytes (hiPSC-CMs)
T1 sequence (Q13936 whole entry): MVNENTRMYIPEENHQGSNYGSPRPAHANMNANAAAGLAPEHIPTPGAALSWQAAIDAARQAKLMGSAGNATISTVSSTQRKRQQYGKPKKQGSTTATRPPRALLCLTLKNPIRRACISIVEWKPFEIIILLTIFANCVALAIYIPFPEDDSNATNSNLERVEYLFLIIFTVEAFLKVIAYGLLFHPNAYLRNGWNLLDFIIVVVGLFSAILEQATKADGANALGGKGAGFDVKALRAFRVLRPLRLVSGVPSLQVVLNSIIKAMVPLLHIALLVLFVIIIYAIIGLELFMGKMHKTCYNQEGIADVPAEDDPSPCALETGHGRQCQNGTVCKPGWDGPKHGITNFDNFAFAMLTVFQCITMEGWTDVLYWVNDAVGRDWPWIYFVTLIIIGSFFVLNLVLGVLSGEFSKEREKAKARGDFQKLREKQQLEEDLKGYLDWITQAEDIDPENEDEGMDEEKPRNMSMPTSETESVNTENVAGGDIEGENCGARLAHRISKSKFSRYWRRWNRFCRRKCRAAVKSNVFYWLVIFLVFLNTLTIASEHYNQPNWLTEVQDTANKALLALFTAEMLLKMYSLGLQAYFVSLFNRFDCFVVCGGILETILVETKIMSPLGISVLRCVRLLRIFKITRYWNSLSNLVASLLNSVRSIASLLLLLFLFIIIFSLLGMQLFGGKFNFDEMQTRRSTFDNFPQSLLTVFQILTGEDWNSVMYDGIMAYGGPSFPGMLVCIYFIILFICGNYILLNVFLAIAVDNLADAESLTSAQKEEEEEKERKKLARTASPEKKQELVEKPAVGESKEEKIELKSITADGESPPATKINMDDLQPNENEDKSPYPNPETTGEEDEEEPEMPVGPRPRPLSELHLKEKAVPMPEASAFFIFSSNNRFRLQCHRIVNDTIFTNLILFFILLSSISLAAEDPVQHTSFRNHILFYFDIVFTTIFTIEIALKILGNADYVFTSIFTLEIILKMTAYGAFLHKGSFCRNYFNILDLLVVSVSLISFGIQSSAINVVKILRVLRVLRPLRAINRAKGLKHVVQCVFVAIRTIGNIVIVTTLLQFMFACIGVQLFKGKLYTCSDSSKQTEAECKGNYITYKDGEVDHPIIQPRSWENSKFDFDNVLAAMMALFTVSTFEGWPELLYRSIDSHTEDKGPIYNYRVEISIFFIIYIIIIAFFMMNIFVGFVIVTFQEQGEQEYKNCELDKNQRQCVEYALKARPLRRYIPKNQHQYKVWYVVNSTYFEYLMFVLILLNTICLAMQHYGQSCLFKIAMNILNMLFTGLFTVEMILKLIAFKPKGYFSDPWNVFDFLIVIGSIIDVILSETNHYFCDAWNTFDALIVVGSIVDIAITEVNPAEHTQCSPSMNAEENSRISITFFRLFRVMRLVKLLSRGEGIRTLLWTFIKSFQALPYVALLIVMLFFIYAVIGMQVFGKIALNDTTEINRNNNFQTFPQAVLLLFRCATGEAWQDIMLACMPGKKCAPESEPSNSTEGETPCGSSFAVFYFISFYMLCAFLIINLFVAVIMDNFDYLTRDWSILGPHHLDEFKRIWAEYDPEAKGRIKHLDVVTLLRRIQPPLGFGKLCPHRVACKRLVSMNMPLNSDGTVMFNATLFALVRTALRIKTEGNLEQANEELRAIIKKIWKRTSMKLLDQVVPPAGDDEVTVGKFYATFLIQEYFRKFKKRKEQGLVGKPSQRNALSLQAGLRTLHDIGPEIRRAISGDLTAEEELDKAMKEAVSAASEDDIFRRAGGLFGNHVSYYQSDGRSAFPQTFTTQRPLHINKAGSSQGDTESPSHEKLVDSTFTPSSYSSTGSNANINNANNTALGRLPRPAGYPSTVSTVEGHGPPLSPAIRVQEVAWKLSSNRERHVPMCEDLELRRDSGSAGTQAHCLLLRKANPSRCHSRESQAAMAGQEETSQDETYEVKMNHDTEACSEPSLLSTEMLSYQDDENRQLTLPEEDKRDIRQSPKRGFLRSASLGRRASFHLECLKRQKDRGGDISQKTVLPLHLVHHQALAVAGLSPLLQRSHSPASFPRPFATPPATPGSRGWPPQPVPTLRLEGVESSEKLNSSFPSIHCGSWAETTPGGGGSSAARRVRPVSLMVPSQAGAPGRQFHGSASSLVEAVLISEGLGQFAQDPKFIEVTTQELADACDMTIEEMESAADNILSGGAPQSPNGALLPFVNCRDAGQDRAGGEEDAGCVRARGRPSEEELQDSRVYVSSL
T1 sequence (Q08289 whole entry partner): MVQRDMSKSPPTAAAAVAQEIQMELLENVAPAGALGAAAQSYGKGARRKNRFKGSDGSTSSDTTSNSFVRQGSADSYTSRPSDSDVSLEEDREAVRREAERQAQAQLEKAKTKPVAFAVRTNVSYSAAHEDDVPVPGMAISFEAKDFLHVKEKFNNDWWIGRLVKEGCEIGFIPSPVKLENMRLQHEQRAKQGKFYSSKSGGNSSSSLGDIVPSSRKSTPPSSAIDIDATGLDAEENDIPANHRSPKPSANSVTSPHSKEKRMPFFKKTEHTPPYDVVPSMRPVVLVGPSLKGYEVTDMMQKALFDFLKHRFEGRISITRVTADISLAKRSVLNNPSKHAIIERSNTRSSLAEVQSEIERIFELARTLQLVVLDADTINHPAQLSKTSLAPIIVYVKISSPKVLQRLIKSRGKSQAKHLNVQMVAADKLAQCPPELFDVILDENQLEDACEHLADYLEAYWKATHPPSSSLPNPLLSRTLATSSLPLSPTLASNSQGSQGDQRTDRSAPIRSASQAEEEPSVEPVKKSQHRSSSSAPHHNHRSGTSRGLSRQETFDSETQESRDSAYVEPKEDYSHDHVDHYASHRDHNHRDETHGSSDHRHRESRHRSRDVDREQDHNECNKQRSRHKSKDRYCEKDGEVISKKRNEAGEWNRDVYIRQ
T1 sequence (P54289 25-956 partner limits assumed): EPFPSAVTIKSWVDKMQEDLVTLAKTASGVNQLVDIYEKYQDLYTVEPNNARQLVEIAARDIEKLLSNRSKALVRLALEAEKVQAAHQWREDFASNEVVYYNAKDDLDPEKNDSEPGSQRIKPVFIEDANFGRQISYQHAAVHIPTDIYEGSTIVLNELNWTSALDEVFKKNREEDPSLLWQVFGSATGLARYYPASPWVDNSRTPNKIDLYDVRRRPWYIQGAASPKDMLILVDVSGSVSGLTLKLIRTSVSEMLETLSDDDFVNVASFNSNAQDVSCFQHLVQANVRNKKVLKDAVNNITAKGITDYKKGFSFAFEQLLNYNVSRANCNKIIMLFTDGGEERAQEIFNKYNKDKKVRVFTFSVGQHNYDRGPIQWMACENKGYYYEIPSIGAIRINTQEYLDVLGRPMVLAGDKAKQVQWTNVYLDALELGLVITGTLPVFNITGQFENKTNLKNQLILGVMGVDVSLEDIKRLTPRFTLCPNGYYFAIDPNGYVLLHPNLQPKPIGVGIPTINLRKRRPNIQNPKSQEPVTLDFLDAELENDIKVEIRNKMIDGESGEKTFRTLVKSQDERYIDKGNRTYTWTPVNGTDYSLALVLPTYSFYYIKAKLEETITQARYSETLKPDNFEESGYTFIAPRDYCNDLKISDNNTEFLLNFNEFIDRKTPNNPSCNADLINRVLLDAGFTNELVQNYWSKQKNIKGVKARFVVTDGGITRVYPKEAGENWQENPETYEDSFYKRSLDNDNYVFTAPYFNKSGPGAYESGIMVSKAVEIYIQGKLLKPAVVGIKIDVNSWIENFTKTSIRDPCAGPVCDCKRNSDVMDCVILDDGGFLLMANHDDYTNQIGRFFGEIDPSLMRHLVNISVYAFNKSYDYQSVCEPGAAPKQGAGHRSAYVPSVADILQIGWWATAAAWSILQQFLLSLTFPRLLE
T1 sequence (P54289 957-1103 partner limits assumed): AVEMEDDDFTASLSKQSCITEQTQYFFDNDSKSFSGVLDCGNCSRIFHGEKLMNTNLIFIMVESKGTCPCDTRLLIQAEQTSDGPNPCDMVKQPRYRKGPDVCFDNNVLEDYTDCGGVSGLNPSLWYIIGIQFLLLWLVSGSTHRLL
Text: as §4, §3

[6] = molecular target: T2, L-type calcium current (ICa,L) in LQTS hiPSC-CMs (Homo sapiens, UniProt Q13936); assay: Patch-clamp L-type calcium current, LQTS hiPSC-CMs; format: cell-based
T2 construct: endogenous in cells; host or cells: LQTS patient-derived hiPSC cardiomyocytes
T2 sequence (Q13936 whole entry): as the sequence (Q13936 whole entry) above
T2 sequence (Q08289 whole entry partner): as the sequence (Q08289 whole entry partner) above
T2 sequence (P54289 25-956 partner limits assumed): as the sequence (P54289 25-956 partner limits assumed) above
T2 sequence (P54289 957-1103 partner limits assumed): as the sequence (P54289 957-1103 partner limits assumed) above
Text: as §4, §3

myocardial cells = system: myocardial cells; parameters: method as in our previous work; conditions: low doses 5–20 nmol/L, ref our previous work; cited from earlier work
CYP3A4 = conditions: in vivo; cited from earlier work
[7] = LQT hiPSC-CMs, 0.05 μM, versus control group

Q: Which amplitude (normal hiPSC-CMs [1]; normal hiPSC-CMs) does the source give for `CCN1C[C@]2(COC)[C@H](O)C[C@H](OC)[C@@]34[C@@H]5C[C@@]6(O)[C@H](OC(=O)c7ccccc7)[C@@H]5[C@@](OC(C)=O)([C@@H]([C@H](OC)[C@H]23)[C@@H]14)[C@@H](O)[C@@H]6OC` [AC, aconitine] here?
A: The amplitude was “concentration-dependently decreased”.

Q: What about the cell index (normal hiPSC-CMs [1]; normal hiPSC-CMs) of the same compound?
A: Its cell index is “no significant effect”.

Q: What about the cell beat rate (normal hiPSC-CMs [1]; normal hiPSC-CMs, 0.5 μM) of the same compound?
A: The cell beat rate was “faster after 12 h”.

Q: What about the cell contractility (normal hiPSC-CMs [1]; normal hiPSC-CMs, 0.5 μM) of the same compound?
A: Its cell contractility is “decreased cell contractility”.

Q: What about the cell frequency (normal hiPSC-CMs [1]; normal hiPSC-CMs, 0.5 μM) of the same compound?
A: Its cell frequency is “increased cell frequency”.

Q: And the cell contractility (normal hiPSC-CMs [1]; normal hiPSC-CMs, 5 μM, very weak within 6 h after treatment)?
A: Its cell contractility is “significantly reduced”.

Q: What about the cardiomyocyte death (normal hiPSC-CMs [1]; normal hiPSC-CMs, 0.05, 0.5 and 5 μM, 48 h observation period) of the same compound?
A: The cardiomyocyte death was “None of the three concentrations (0.05, 0.5, and 5 μM) AC caused cardiomyocyte death”.

Q: And the contraction force (normal hiPSC-CMs [1]; normal hiPSC-CMs, versus control group, concentration not given)?
A: The contraction force was “slightly lower”.

Q: And the contraction force (LQT syndrome hiPSC-CMs [2]; [7])?
A: The contraction force was “lower contraction force”.

Q: And the contraction frequency (LQT syndrome hiPSC-CMs [2]; [7])?
A: The contraction frequency was “higher contraction frequency”.

Q: What about the cell frequency (LQT syndrome hiPSC-CMs [2]; LQT hiPSC-CMs, 0.5 μM) of the same compound?
A: The cell frequency was “significantly increased”.

Q: And the contractility (LQT syndrome hiPSC-CMs [2]; LQT hiPSC-CMs, 0.5 μM)?
A: The contractility was “significantly increased”.

Q: What about the cell contractility (LQT syndrome hiPSC-CMs [2]; LQT hiPSC-CMs, 5 μM, very weak within 30 h after treatment) of the same compound?
A: The cell contractility was “decreased to zero”.

Q: And the myocardial cell death (LQT syndrome hiPSC-CMs [2]; LQT hiPSC-CMs, three concentrations (0.05, 0.5, 5 μM), 48 h observation period)?
A: Its myocardial cell death is “None of the three concentrations caused significant myocardial cell death”.

Q: What about the cell index (LQT syndrome hiPSC-CMs [2]; LQTS hiPSC-CMs, 5.0 μM, between 5–30 min) of the same compound?
A: Its cell index is “decreased the cell index”.

Q: And the APD50 (normal hiPSC-CMs [3])?
A: The APD50 was “concentration-dependently shortened”.

Q: And the “frequency of calcium transient” value (LQT syndrome hiPSC-CMs [4])?
A: Its value is “significantly increase”.

Q: What about the IC50 ([5]; normal (control) hiPSC-CMs, tested 0.05–5 μM, no concentration dependence, read-out: IC50, inhibition of L-type calcium current) of the same compound?
A: Its IC50 is over 5 µM.

Q: What about the “peak value of L-type calcium current” value ([5]; normal group, 0.05–5 μM) of the same compound?
A: Its value is “significantly decreased”.

Q: And the IC50 ([5]; normal hiPSC-CMs, estimated beyond tested range 0.05–5 μM, read-out: IC50 (eIC50) on ICa,L)?
A: The IC50 was 27.5 µM.

Q: What about the “peak value of L-type calcium current” value ([6]; LQT group, 0.05–5 μM) of the same compound?
A: Its value is “significantly decreased”.

Q: What about the IC50 ([6]; LQT hiPSC-CMs, tested 0.05–5 μM, no concentration dependence, read-out: IC50, inhibition of L-type calcium current) of the same compound?
A: The IC50 was over 5 µM.

Q: And the IC50 ([6]; LQTS hiPSC-CMs, estimated beyond tested range 0.05–5 μM, read-out: IC50 (eIC50) on ICa,L)?
A: The IC50 was 27.2 µM.

Q: What about the mitochondrial energy metabolism (myocardial cells) of the same compound?
A: Its mitochondrial energy metabolism is “could improve mitochondrial energy metabolism”.

Q: What about the “main CYP 450 subtype for alkaloid metabolism” value (CYP3A4) of the same compound?
A: The value was “CYP3A4”.
